Laboratory results as given in US11613546B2, “Substituted pyridotriazine compounds and uses thereof” (Gilead Sciences, Inc., priority 2021, dated 2023).
Where two headings read alike, the source gives them in different places.

Experiments:
Type in all cases: cell-based
HIV-1 (IIIB) = experiment: Antiviral assay in MT-4 cells; settings: Human immunodeficiency virus 1, IIIB, MT4, 120 h
Procedure: Antiviral Assay in MT-4 Cells
(§1) Compounds were tested in a high-throughput 384-well assay format for their ability to inhibit the replication of HIV-1 (IIIB) in MT-4 cells. Compounds were serially diluted (1:3) in DMSO on 384-well polypropylene plates and further diluted 200-fold into complete RPMI media (10% FBS, 1% P/S) using the Biotek Micro Flow and Labcyte ECHO acoustic dispenser. Each plate contained up to 8 test compounds, with negative (No Drug Control) and 5 μM AZT positive controls. MT-4 cells were pre-infected with 10 μL of either RPMI (mock-infected) or a fresh 1:250 dilution of HIV-1 IIIB concentrated virus stock. Infected and uninfected MT-4 cells were further diluted in complete RPMI media and added to each plate using a Micro Flow dispenser. After 5 days incubation in a humidified and temperature controlled incubator (37° C.), Cell Titer Glo (Promega) was added to the assay plates and chemiluminescence read using an Envision plate-reader. EC50 values were defined as the compound concentration that causes a 50% decrease in luminescence signal, and were calculated using a sigmoidal dose-response model to generate curve fits.

[1] = Cytotoxicity assay in MT-4 cells; settings: human, uninfected MT-4 cells, 5 days, Cell Titer Glo; read-out: CC50
Procedure: as §1, with “fits. Cytotoxicity Assay in MT-4 Cells Assays were performed as above except uninfected MT-4 cells were added to each well containing test compound. In addition, 10 μM puromycin was added to the last column of each assay plate to assess a base level of cytotoxicity.” for “fits.”

pLai RLuc reporter virus = experiment: HIV MT-4 serum shift antiviral reporter assay; settings: Human immunodeficiency virus 1, 72 h
Procedure: To quantify the amount of protein binding to human serum, compounds were serially diluted (1:3) in DMSO and acoustically transferred onto 384-well assay plates via a Labcyte ECHO robot. Each plate contained up to 8 test compounds, including negative and positive controls, (DMSO, 5 μM AZT respectively). Assay plates were prepared in duplicate, and tested in either CCM (cell culture media) or HS/CCM (human serum/cell culture media). MT-4 cells were first pre-infected with pLai RLuc reporter virus for 2 h at 37° C., then further diluted in either CCM (RPMI media, 10% FBS, 1% P/S) or HS/CCM (RPMI media, 10% FBS, 50% HS, 1% P/S), and subsequently added to each plate using a Biotek Micro Flow dispenser. After a 72-h incubation in a humidified and temperature controlled incubator (37° C.), Renilla Glo (Promega) was added to all assay plates and chemiluminescence read using an Envision plate-reader. EC50 values were defined as the compound concentration that causes a 50% decrease in luminescence signal, and were calculated using a sigmoidal dose-response model to generate curve fits. To determine the amount of protein binding, EC50 fold shifts (or EC50 shifts) were calculated by dividing EC50 (HS/CCM)/EC50 (CCM).

[2] = HIV-1 IIIB infected MT-4 cells, 5 days, Cell Titer Glo, read-out: MT4 EC50
[3] = read-out: RLUC 50% HS (nM), HS/CCM: 50% human serum, 72 h, Renilla Glo
[4] = read-out: RLUC CCM (nM), cell culture media (RPMI, 10% FBS), 72 h, Renilla Glo

C[C@H]1CCCCN2CN1n1cc(C(=O)NCc3ccc(F)cc3F)c(=O)c(O)c1C2=O [Example C42, (1R,2S)—N-(2,4-difluorobenzyl)-9-hydroxy-2-methyl-8,10-dioxo-3,4,5,6,8,10-hexahydro-2H-1,7-methanopyrido[1,2-b][1,2,5]triazecine-11-carboxamide]
EC50 (HIV-1 (IIIB); [2]): 2.2 nM
CC50 at 5 days [1]: 7030 nM
EC50 (pLai RLuc reporter virus; [3]): 1880 nM
EC50 (pLai RLuc reporter virus; [4]): 2.47 nM

CO[C@@H]1CC[C@H](C)N2CN1n1cc(C(=O)NCc3c(F)cc(F)cc3F)c(=O)c(O)c1C2=O [Example C47, (1R,2R,5S)-8-hydroxy-2-methoxy-5-methyl-7,9-dioxo-N-(2,4,6-trifluorobenzyl)-2,3,4,5,7,9-hexahydro-1,6-methanopyrido[1,2-b][1,2,5]triazonine-10-carboxamide]
EC50 (HIV-1 (IIIB); [2]): 1.8 nM
CC50 at 5 days [1]: 11500 nM
EC50 (pLai RLuc reporter virus; [3]): 196 nM
EC50 (pLai RLuc reporter virus; [4]): 1.71 nM

C[C@@H]1C=C[C@H](CF)N2CN1n1cc(C(=O)NCc3c(F)cc(F)cc3F)c(=O)c(O)c1C2=O [Example C50, (1S,2R,5R)-5-(fluoromethyl)-8-hydroxy-2-methyl-7,9-dioxo-N-(2,4,6-trifluorobenzyl)-2,5,7,9-tetrahydro-1,6-methanopyrido[1,2-b][1,2,5]triazonine-10-carboxamide]
EC50 (HIV-1 (IIIB); [2]): 0.85 nM
CC50 at 5 days [1]: 13300 nM
EC50 (pLai RLuc reporter virus; [3]): 850 nM
EC50 (pLai RLuc reporter virus; [4]): 0.37 nM

C[C@@H]1C[C@H](F)[C@H](C)N2CN1n1cc(C(=O)NCc3ccc(F)cc3F)c(=O)c(O)c1C2=O [Example C52, (1S,2R,4S,5S)—N-(2,4-difluorobenzyl)-4-fluoro-8-hydroxy-2,5-dimethyl-7,9-dioxo-2,3,4,5,7,9-hexahydro-1,6-methanopyrido[1,2-b][1,2,5]triazonine-10-carboxamide]
EC50 (HIV-1 (IIIB); [2]): 1.5 nM
CC50 at 5 days [1]: 9220 nM
EC50 (pLai RLuc reporter virus; [3]): 473 nM
EC50 (pLai RLuc reporter virus; [4]): 0.77 nM

C[C@@H]1C[C@@H](F)[C@H](C)N2CN1n1cc(C(=O)NCc3ccc(F)cc3F)c(=O)c(O)c1C2=O [Example C53, (1S,2R,4R,5S)—N-(2,4-difluorobenzyl)-4-fluoro-8-hydroxy-2,5-dimethyl-7,9-dioxo-2,3,4,5,7,9-hexahydro-1,6-methanopyrido[1,2-b][1,2,5]triazonine-10-carboxamide]
EC50 (HIV-1 (IIIB); [2]): 1.3 nM
CC50 at 5 days [1]: 9010 nM
EC50 (pLai RLuc reporter virus; [3]): 350 nM
EC50 (pLai RLuc reporter virus; [4]): 0.55 nM

C[C@@H]1CC(F)(F)[C@H](C)N2CN1n1cc(C(=O)NCc3ccc(F)cc3F)c(=O)c(O)c1C2=O [Example C54, (1S,2R,5S)—N-(2,4-difluorobenzyl)-4,4-difluoro-8-hydroxy-2,5-dimethyl-7,9-dioxo-2,3,4,5,7,9-hexahydro-1,6-methanopyrido[1,2-b][1,2,5]triazonine-10-carboxamide]
EC50 (HIV-1 (IIIB); [2]): 2.3 nM
CC50 at 5 days [1]: 47400 nM
EC50 (pLai RLuc reporter virus; [3]): 72.4 nM
EC50 (pLai RLuc reporter virus; [4]): 0.63 nM

C[C@@H]1C=C(F)[C@H](C)N2CN1n1cc(C(=O)NCc3c(F)cc(F)cc3F)c(=O)c(O)c1C2=O [Example C55, (1S,2R,5S)-4-fluoro-8-hydroxy-2,5-dimethyl-7,9-dioxo-N-(2,4,6-trifluorobenzyl)-2,5,7,9-tetrahydro-1,6-methanopyrido[1,2-b][1,2,5]triazonine-10-carboxamide]
EC50 (HIV-1 (IIIB); [2]): 1.3 nM
CC50 at 5 days [1]: 29500 nM
EC50 (pLai RLuc reporter virus; [3]): 515 nM
EC50 (pLai RLuc reporter virus; [4]): 0.71 nM

C[C@@H]1C[C@@H](C(F)F)[C@H](C)N2CN1n1cc(C(=O)NCc3c(F)cc(F)cc3F)c(=O)c(O)c1C2=O [Example C56, (1S,2R,4R,5S)-4-(difluoromethyl)-8-hydroxy-2,5-dimethyl-7,9-dioxo-N-(2,4,6-trifluorobenzyl)-2,3,4,5,7,9-hexahydro-1,6-methanopyrido[1,2-b][1,2,5]triazonine-10-carboxamide]
EC50 (HIV-1 (IIIB); read-out: MT4 EC50 (nM)): 1.1 nM
CC50 at 5 days [1]: 10100 nM
EC50 (pLai RLuc reporter virus; [3]): 24.9 nM
EC50 (pLai RLuc reporter virus; [4]): 0.52 nM
